Results as given in patent US20190307771A1, “METHODS AND COMPOSITIONS FOR THE TREATMENT OF CANCER AND METABOLIC DISEASES” (THE REGENTS OF THE UNIVERSITY OF CALIFORNIA, priority 2016, published 2019).
Entries after “also recorded” stand apart in the source; their conditions may differ. Each block holds one compound with its values, some of them ahead of it.

Assays:
[1] = T2DM and NAFLD patients; cited from earlier work
[2] = test system: miR-22; experiment: miR-22 induction by bile acids, FXR agonist and vitamin D3; conditions: unpublished data
[3] = FXR KO mice, depletion of BAs; cited from earlier work
[4] = test system: liver cancer cells (Huh7, Hep3B, HepG2); conditions: cited from earlier work; for Apoptosis of liver cancer cells: published studies
[5] = cited from earlier work
[6] = test system: liver cancer cells (Huh7, Hep3B, HepG2); experiment: Apoptosis of liver cancer cells; conditions: prevented by NUR77 siRNA
[7] = test system: miR-22; experiment: miR-22 expression in HCT116 cells (qRT-PCR); format: cell-based; conditions: 24 hours, RA 10 μM, butyrate 5 mM, propionate 10 mM, valerate 10 mM, SAHA 5 μM
Description: To study the effect of RA and HDAC inhibitors on miR-22 expression, HCT116 cells were treated with RA, butyrate, propionate, valerate, and SAHA. The SCFA concentrations used were within physiologic ranges^35.
(§1) Total RNA was extracted with TRIzol Reagent (Invitrogen, Carlsbad, Calif.), and cDNA was generated using High Capacity RNA-to-cDNA Kit (Applied Biosystems, Carlsbad, Calif.). qRT-PCR was performed on ABI 7900HT Fast Real time PCR system using Power SYBR® Green PCR Master Mix (Applied Biosystems, Carlsbad, Calif.).

[8] = test system: retinoic acid receptor beta (RARβ); experiment: RARB expression in HCT116 cells (qRT-PCR); format: cell-based; conditions: 24 hours, RA 10 μM, butyrate 5 mM, SAHA 5 μM
Description: as §1

[9] = test system: RARB and NUR77 genes; experiment: ChIP-qPCR: HDAC recruitment and H3K9 acetylation at RARB and NUR77 genes in HCT116 cells; format: cell-based; conditions: RA 10 μM, butyrate 5 mM, SAHA 5 μM
Description: Cell lysates were used for ChIP with antibodies specific for HDAC1, HDAC4, SIRT1, or acetylated H3K9, followed by qPCR using primers specific for the RARB and NUR77 genes. DMSO treated cells and IP using IgG were included as negative controls. […]inding was expressed relative to the IgG negative controls.
(§2) Chromatin immunoprecipitation (ChIP)-qPCR ChIP-qPCR was performed as described previously^21. Briefly, chromatin lysate was precleared before incubation with an anti-H3K9AC antibody (Millipore. Billerica, Mass.), anti-HDAC1 and anti-HDAC4 (Cell signaling technology, Beverly, Mass.) or anti-SIRT1 antibody (Santa Cruz Biotechnology, Santa Cruz, Calif.). IgG (Santa Cruz Biotechnology, Santa Cruz, Calif.) and RNA Polymerase II antibody (Millipore, Billerica, Mass.) were used as negative and positive controls, respectively. Samples were incubated with Dynase beads at 4° C. overnight followed by de-crosslinking and purification. DNA fragments generated served as templates for qPCR using Power SYBR1 Green PCR Master Mix.

[10] = test system: NUR77 and RARβ; experiment: Induction and localization of NUR77 and RARβ in HCT116 cells; format: cell-based; conditions: 48 hours, RA 10 μM, butyrate 5 mM, SAHA 5 μM, EGF 32 nM
Description: Proteins were immunoprecipitated by anti-NUR77 or anti-RARβ antibodies, or IgG, followed by Western blot using anti-RARβ or anti-NUR77 antibodies.
To study the effect of miR-22 in induction of cytosolic NUR77 by RA/butyrate, adenoviral-delivery of miR-22 inhibitors tagged with green fluorescence (adeno-miR-22 inhibitor-GFP, Applied Biological Materials Inc, Richond, BC) were used to infect HCT116 cells. At 48 hours post adenoviral infection, cells were treated with RA (10 μM) plus butyrate (5 mM) or DMSO for 24 hours. […] Cells were mounted in ProLong® Gold Antifade Reagent with DAPI (4′,6-diamidino-2-phenylindole, Life Technologies, Carlsbad, Calif.) and imaged under Keyence BZ-9000 microscope.

[11] = test system: NUR77; experiment: ChIP-qPCR and RT-PCR: NUR77 binding to BRE and CCND2 and their mRNA; format: cell-based; conditions: HCT116 cells
Description: NUR77 and RARβ acetylation status was also studied because protein acetylation alters nuclear receptor activity^37. […] To study the effect of RA/butyrate in modulating NUR77 and RARβ transcriptional activity, ChIP-qPCR and RT-PCR were performed to determine receptor binding to transcriptional regulatory regions and mRNA levels of downstream targets, respectively.
as §2

[12] = test system: Gpr41, Gpr43, Gpr109a, Pgc1α, Pepck, Fas; experiment: Ileal and hepatic mRNA levels in mice after oral gavage; format: in vivo, C57BL/6 mice; conditions: RA 15 mg/kg and/or butyrate 500 mg/kg, oral gavage every other day for one week
[13] = test system: HDAC1, HDAC4, SIRT1, cyclin A2 (CCNA2); experiment: Western blot of protein deacetylases and cyclin A2 in HCT116 cells; format: cell-based; conditions: 24 hours, RA 10 μM, butyrate 5 mM, SAHA 5 μM
[14] = cited from earlier work; remark: listed apart in the source
[15] = test system: DLD-1 colon cancer cells; experiment: Cell viability of DLD-1 cells; conditions: 48 hours, RA 10 μM, butyrate 5 mM, propionate 10 mM, valerate 10 mM, SAHA 5 μM, vs. DMSO
Description: HCT116 and DLD-1 colon cancer cells were treated with dimethyl sulfoxide (DMSO) only (as a negative control), RA (10 μM), Fenretinide (10 μM), or an HDAC inhibitor. […] SCFAs were selected from butyrate (5 mM), propionate (10 mM), and valerate (10 mM). Some HCT116 and DLD-1 cells were treated separately with a combination of RA and one of the SCFAs. Cells were treated for 48 hours before viability was assessed.

[16] = FXR KO mice: steatohepatitis and liver cancer; format: in vivo; conditions: 10 months old Western diet-fed FXR KO mice; 100 mg/liter in drinking water for three months
Excerpt: The treatment was started when mice were seven months old. Mice were sacrificed when they were ten months old. n>4.
FXR KO mice have increased insulin resistance accompanied by elevated BAs with increased DCA and develop liver cancer when they are about 15 months old (FIG. 24). […] In addition, FXR KO mice also had reduced Erysipelotrichaceae and Coriobacteriaceae, which have many beneficial health effects (FIG. 25A). Consistently, FXR KO mice had reduced bcoA, which generates butyrate, and increased baiJ and dsrA that generate DCA and hydrogen sulfide, respectively (FIG. 25B). Moreover, 10 months old Western diet-fed FXR KO mice developed severe steatohepatitis with massive hepatic lymphocyte infiltration, which could be eliminated by polymyxin B. This exciting finding clearly indicated the role of Gram-negative bacteria in contributing to hepatic inflammation (FIG. 26). […] Because it takes about 10-15 months for FXR KO mice to develop liver cancer, we will introduce Met/β-catenin plasmids by using sleep beauty transposon system into FXR KO mice via hydrodynamic tail vein injection to induce liver cancer. In wild type mice, these plasmids, which have been provided by Dr. Xin Chen at UCSF, can induce liver cancer within a month post-injection. In the presence of dysbiosis and dysregulated BAs, liver cancer formation is expected to be facilitated and may occur even earlier. […]

[17] = test system: primary liver cancer; conditions: cited from earlier work

Compound: CC[C@H]1[C@@H](O)[C@@H]2[C@H](CC[C@]3(C)[C@@H]([C@H](C)CCC(=O)O)CC[C@@H]23)[C@@]2(C)CC[C@@H](O)C[C@@H]12 [obetacholic acid]
Insulin sensitivity, liver inflammation and fibrosis [1]: improves insulin sensitivity and reduces liver inflammation as well as fibrosis
miR-22 induction [2]: effective in inducing miR-22

Compound: cholestyramine
Liver cancer formation [3]: prevented liver cancer formation

Compound: CC1=C(/C=C/C(C)=C/C=C/C(C)=C/C(=O)Nc2ccc(O)cc2)C(C)(C)CCC1 [fenretinide, N-(4-hydroxyphenyl) retinamide]
Apoptotic effect in HepG2 ([4]; HepG2 vs. Huh7 and Hep3B): resistant to the apoptotic effect
Apoptosis of liver cancer cells [4]: effectively induces apoptosis of liver cancer cells; also recorded: much better apoptosis inducer than RA
Tumor response ([5]; NCI case report, advanced cutaneous T-cell lymphoma patient): tumor response
Stabilization of the disease ([5]; Phase II, small cell lung cancer): 24 % of the patients
Tolerability ([5]; breast cancer chemoprevention study (3000 patients, 5 year), Phase II small cell lung cancer): well tolerated in humans; also recorded: well tolerated in patients with small cell lung cancer
Apoptosis of Huh7 cells [6]: induced apoptosis of Huh7 cells

NUR77 binding to BRE and CCND2 promoter regions and their mRNA levels (NUR77 transcriptional activity) [11]: not RA alone
Compound: CC1=C(/C=C/C(C)=C/C=C/C(C)=C/C(=O)O)C(C)(C)CCC1 [RA, all-trans retinoic acid]
miR-22 expression level [7]: upregulated; also recorded: induced miR-22 expression; also recorded: could induce miR-22; also recorded: increased miR-22 level
RARB (RARβ) expression / transcription [8]: upregulated
Recruitment of HDAC4 and SIRT1 to the RARB gene (ChIP-qPCR) [9]: not
Induction and localization of NUR77 and RARβ (immunostaining) [10]: modestly induced both receptors in the nucleus
Expression of Gpr41 and Gpr43 [12]: could induce the expression
Protein levels of HDAC1, HDAC4, SIRT1, and cyclin A2 (CCNA2) [13]: reduced HDAC1, HDAC4, SIRT1, and CCNA2 protein levels
Apoptosis of liver cancer cells [4]: not as effective as fenretinide in inducing apoptosis
Microbiota phenotype, metabolism and liver regeneration ([14]; RA prior to liver resection): lean microbiota phenotype, improved metabolism as well as accelerated liver regeneration
Ratio of Firmicutes to Bacteroidetes ([14]; one day after liver resection): reduced ratio of Firmicutes to Bacteroidetes
Cell viability [15]: reduced cell viability

Compound: polymyxin B
Severe steatohepatitis with massive hepatic lymphocyte infiltration [16]: eliminated

Compound: CNC(=O)c1cc(Oc2ccc(NC(=O)Nc3ccc(Cl)c(C(F)(F)F)c3)cc2)ccn1 [sorafenib]
Increase of survival [17]: 6 months

Compound: O=C(CCCCCN1C(=O)c2cccc3cccc(c23)C1=O)NO [Scriptaid]
Apoptosis of Huh7 cells [6]: induced apoptosis of Huh7 cells
